PubChem BioAssay (NCI)
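48-hour exposure; five concentrations; linearly interpolated endpoints. Abbreviation: GI50, concentration required for 50% inhibition of growth. TGI is the concentration that stops growth completely.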

Key:
Experiment in all cases: NCI-60 cell line screen, 48 h
[1] = tested on: RPMI-8226 leukemia
[2] = tested on: HOP-92 NSCLC
[3] = tested on: U251 CNS
[4] = tested on: MCF7 breast
[5] = tested on: LOX IMVI melanoma
[6] = tested on: SK-MEL-5 melanoma
[7] = tested on: HS 578T breast
[8] = tested on: HL-60(TB) leukemia
[9] = tested on: OVCAR-4 ovarian
[10] = tested on: RXF 393 renal
[11] = tested on: OVCAR-3 ovarian
[12] = tested on: UACC-257 melanoma
[13] = tested on: DU-145 prostate
[14] = tested on: SK-OV-3 ovarian
[15] = tested on: HCC-2998 colon
[16] = tested on: NCI-H23 lung
[17] = tested on: MDA-MB-435
[18] = tested on: MDA-MB-231 breast
[19] = tested on: SK-MEL-28 melanoma
[20] = tested on: TK-10 renal
[21] = tested on: HCT-116 colon
[22] = tested on: UO-31 renal
[23] = tested on: ACHN renal
[24] = tested on: SF-268 CNS
[25] = tested on: HT29 colon
[26] = tested on: MALME-3M melanoma
[27] = tested on: 786-0 renal
[28] = tested on: PC-3 prostate
[29] = tested on: KM12 colon
[30] = tested on: IGROV1 ovarian
[31] = tested on: M14 melanoma
[32] = tested on: SNB-75 CNS
[33] = tested on: CAKI-1 renal
[34] = tested on: T-47D breast
[35] = tested on: NCI-H460 lung
[36] = tested on: EKVX NSCLC
[37] = tested on: NCI-H226 lung
[38] = tested on: UACC-62 melanoma
[39] = tested on: COLO 205 colon
[40] = tested on: HOP-62 NSCLC
[41] = tested on: SW-620 colon
[42] = tested on: SF-539 CNS
[43] = tested on: SN12C renal
[44] = tested on: OVCAR-8 ovarian
[45] = tested on: NCI/ADR-RES ovarian
[46] = tested on: BT-549 breast
[47] = tested on: A498 renal
[48] = tested on: CCRF-CEM leukemia
[49] = tested on: A549 NSCLC
[50] = tested on: NCI-H522 lung
[51] = tested on: HCT-15 colon
[52] = tested on: SNB-19 CNS
[53] = tested on: OVCAR-5 ovarian
[54] = tested on: SF-295 CNS
[55] = tested on: MOLT-4 leukemia
[56] = tested on: SK-MEL-2 melanoma
[57] = tested on: K-562 leukemia
[58] = tested on: SR leukemia

## CNC(C)[C@H]1CCC2C3CCC4C[C@@H](N(C)C(=O)c5ccccc5)CC[C@]4(C)C3CC[C@@]21C (stereo partly drawn)
[1]
  GI50: 0.426 µM
  TGI: 3.3 µM
[2]
  GI50: 0.384 µM
  TGI: 3.52 µM
[3]
  GI50: 1.25 µM
  TGI: 5.4 µM
[4]
  GI50: 0.94 µM
  TGI: 3.35 µM
[5]
  GI50: 0.419 µM
  TGI: 1.8 µM
[6]
  GI50: 0.613 µM
  TGI: 2.02 µM
[7]
  GI50: 1.34 µM
  TGI: 3.94 µM
[8]
  GI50: 1.58 µM
  TGI: 4.28 µM
[9]
  GI50: 1.44 µM
  TGI: 16.4 µM
[10]
  GI50: 1.73 µM
  TGI: 4.26 µM
[11]
  GI50: 1.22 µM
  TGI: 3.99 µM
[12]
  GI50: 2.19 µM
  TGI: 5.53 µM
[13]
  GI50: 3.46 µM
  TGI: 16.6 µM
[14]
  GI50: 2.06 µM
  TGI: 5.29 µM
[15]
  GI50: 1.63 µM
  TGI: 4.8 µM
[16]
  GI50: 0.737 µM
  TGI: 4.96 µM
[17]
  GI50: 0.632 µM
  TGI: 2.42 µM
[18]
  GI50: 1.6 µM
  TGI: 3.87 µM
[19]
  GI50: 1.36 µM
  TGI: 2.9 µM
[20]
  GI50: 2.16 µM
  TGI: 7.83 µM
[21]
  GI50: 0.409 µM
  TGI: 1.73 µM
[22]
  GI50: 0.794 µM
  TGI: 2.69 µM
[23]
  GI50: 2.37 µM
  TGI: 9.59 µM
[24]
  GI50: 1.16 µM
  TGI: 3.21 µM
[25]
  GI50: 0.291 µM
  TGI: 1.23 µM
[26]
  GI50: 1.6 µM
  TGI: 3.99 µM
[27]
  GI50: 1.3 µM
  TGI: 2.82 µM
[28]
  GI50: 0.969 µM
  TGI: 3.52 µM
[29]
  GI50: 1.44 µM
  TGI: 5.83 µM
[30]
  GI50: 1.96 µM
  TGI: 7.73 µM
[31]
  GI50: 1.3 µM
  TGI: 2.95 µM
[32]
  GI50: 1.97 µM
  TGI: 5.12 µM
[33]
  GI50: 1.54 µM
  TGI: 5.13 µM
[34]
  GI50: 0.37 µM
  TGI: 4.26 µM
[35]
  GI50: 0.732 µM
  TGI: 2.33 µM
[36]
  GI50: 0.613 µM
  TGI: 6.3 µM
[37]
  GI50: 2.01 µM
  TGI: 12.9 µM
[38]
  GI50: 1.02 µM
  TGI: 2.64 µM
[39]
  GI50: 1.15 µM
  TGI: 2.52 µM
[40]
  GI50: 1.43 µM
  TGI: 3.17 µM
[41]
  GI50: 0.854 µM
  TGI: 2.9 µM
[42]
  GI50: 0.739 µM
  TGI: 2.01 µM
[43]
  GI50: 1.82 µM
  TGI: 8.34 µM
[44]
  GI50: 3.44 µM
  TGI: 23.2 µM
[45]
  GI50: 2.57 µM
  TGI: 15.5 µM
[46]
  GI50: 2.26 µM
  TGI: 8.35 µM
[47]
  GI50: 1.65 µM
  TGI: 10.2 µM
[48]
  GI50: 0.763 µM
  TGI: 3.4 µM
[49]
  GI50: 2.31 µM
  TGI: 7.29 µM
[50]
  GI50: 2.32 µM
  TGI: 8.5 µM
[51]
  GI50: 0.407 µM
  TGI: 2.19 µM
[52]
  GI50: 2.88 µM
  TGI: 8.36 µM
[53]
  GI50: 2.4 µM
  TGI: 14.8 µM
[54]
  GI50: 1.25 µM
  TGI: 3.36 µM
[55]
  GI50: 1.02 µM
  TGI: 3.46 µM
[56]
  GI50: 2.6 µM
  TGI: 5.4 µM
[57]
  GI50: 0.351 µM
  TGI: 2.46 µM

## COc1cc2c(c(OC)c1OC)C(=O)c1c-2n(CCCN=[N+]=[N-])c(=O)c2cc([N+](=O)[O-])ccc12
[3]
  GI50: 58 µM
  TGI: > 100 µM
[4]
  GI50: 27.2 µM
  TGI: > 100 µM
[5]
  GI50: > 100 µM
  TGI: > 100 µM
[6]
  GI50: > 100 µM
  TGI: > 100 µM
[7]
  GI50: 25.3 µM
  TGI: > 100 µM
[8]
  GI50: > 100 µM
  TGI: > 100 µM
[9]
  GI50: 46.8 µM
  TGI: > 100 µM
[10]
  GI50: 19.1 µM
  TGI: 66.1 µM
[11]
  GI50: > 100 µM
  TGI: > 100 µM
[12]
  GI50: > 100 µM
  TGI: > 100 µM
[13]
  GI50: > 100 µM
  TGI: > 100 µM
[14]
  GI50: 62.7 µM
  TGI: > 100 µM
[15]
  GI50: > 100 µM
  TGI: > 100 µM
[16]
  GI50: 50.8 µM
  TGI: > 100 µM
[17]
  GI50: > 100 µM
  TGI: > 100 µM
[18]
  GI50: 35.8 µM
  TGI: > 100 µM
[19]
  GI50: > 100 µM
  TGI: > 100 µM
[20]
  GI50: > 100 µM
  TGI: > 100 µM
[21]
  GI50: 36.1 µM
  TGI: > 100 µM
[22]
  GI50: 69.7 µM
  TGI: > 100 µM
[24]
  GI50: 29.8 µM
  TGI: > 100 µM
[25]
  GI50: > 100 µM
  TGI: > 100 µM
[27]
  GI50: 41 µM
  TGI: > 100 µM
[29]
  GI50: > 100 µM
  TGI: > 100 µM
[30]
  GI50: 24.3 µM
  TGI: > 100 µM
[31]
  GI50: > 100 µM
  TGI: > 100 µM
[32]
  GI50: 19.4 µM
  TGI: 54.9 µM
[33]
  GI50: 60.6 µM
  TGI: > 100 µM
[34]
  GI50: > 100 µM
  TGI: > 100 µM
[35]
  GI50: 58.2 µM
  TGI: > 100 µM
[36]
  GI50: > 100 µM
  TGI: > 100 µM
[37]
  GI50: > 100 µM
  TGI: > 100 µM
[38]
  GI50: 39.7 µM
  TGI: > 100 µM
[39]
  GI50: > 100 µM
  TGI: > 100 µM
[40]
  GI50: 30.7 µM
  TGI: > 100 µM
[58]
  GI50: 16.3 µM
  TGI: 41.9 µM
[41]
  GI50: > 100 µM
  TGI: > 100 µM
[42]
  GI50: 39.2 µM
  TGI: > 100 µM
[43]
  GI50: > 100 µM
  TGI: > 100 µM
[44]
  GI50: 72.3 µM
  TGI: > 100 µM
[45]
  GI50: 53 µM
  TGI: > 100 µM
[46]
  GI50: 27.3 µM
  TGI: > 100 µM
[47]
  GI50: 14 µM
  TGI: 54.1 µM
[49]
  GI50: > 100 µM
  TGI: > 100 µM
[50]
  GI50: 16.9 µM
  TGI: 79.3 µM
[51]
  GI50: > 100 µM
  TGI: > 100 µM
[52]
  GI50: 72.6 µM
  TGI: > 100 µM
[53]
  GI50: > 100 µM
  TGI: > 100 µM
[54]
  GI50: 71.2 µM
  TGI: > 100 µM
[55]
  GI50: > 100 µM
  TGI: > 100 µM
[56]
  GI50: 22.8 µM
  TGI: 70.7 µM
[57]
  GI50: > 100 µM
  TGI: > 100 µM
